For 29 molecules, efficacy in % results are on record in patent US8507472B2 (priority 2010, dated 2013).

What all share (format): in vivo
What all share (conditions): in vivo

One test deals with Sphaerotheca fuliginea. Briefly: Sphaerotheca test (cucumber)/protective. As for the experimental part:
(§1) Solvent: 49 parts by weight of N,N-dimethylformamide
(§2) Emulsifier: 1 part by weight of alkylaryl polyglycol ether
(§3) To produce a suitable preparation of active compounds, 1 part by weight of active compound is mixed with the stated amounts of solvent and emulsifier, and the concentrate is diluted with water to the desired concentration.
To test for protective activity, young cucumber plants are sprayed with the active compound preparation at the stated application rate. 1 day after the treatment, the plants are inoculated with a spore suspension of Sphaerotheca fuliginea. The plants are then placed in a greenhouse at 70% rel. atmospheric humidity and a temperature of 23° C.
(§4) Evaluation is carried out 7 days after the inoculation. 0% means an efficacy which corresponds to that of the control, whereas an efficacy of 100% means that no infection is observed.

The next test has as its system Leptosphaeria nodorum. The test can be described thus: Leptosphaeria nodorum test (wheat)/protective. Here is the method:
as §1, §2, §3
To test for protective activity, young wheat plants are sprayed with the active compound preparation at the stated application rate. 1 day after the treatment, the plants are inoculated with an aqueous spore suspension of Leptosphaeria nodorum and then remain at 100% rel. atmospheric humidity and 22° C. for 48 h. The plants are then placed in a greenhouse at 90% rel. atmospheric humidity and a temperature of 22° C.
(§5) Evaluation is carried out 7-9 days after the inoculation. 0% means an efficacy which corresponds to that of the control, whereas an efficacy of 100% means that no infection is observed.

The subject of a further test is Pyrenophora teres. Briefly: Pyrenophora teres test (barley)/protective. As for the experimental part: as §1, §2, §3
To test for protective activity, young barley plants are sprayed with the active compound preparation at the stated application rate. 1 day after the treatment, the plants are inoculated with an aqueous spore suspension of Pyrenophora teres and then remain at 100% rel. atmospheric humidity and 22° C. for 48 h. The plants are then placed in a greenhouse at 80% rel. atmospheric humidity and a temperature of 20° C.
as §5

The subject of a further test is Phytophthora infestans.
Another test has as its system Alternaria solani. The test can be described thus: Alternaria test (tomato)/protective. As for the experimental part:
as §1, §2
To produce a suitable preparation of active compound, 1 part by weight of active compound is mixed with the stated amounts of solvent and emulsifier, and the concentrate is diluted with water to the desired concentration.
To test for protective activity, young tomato plants are sprayed with the active compound preparation at the stated application rate. 1 day after the treatment, the plants are inoculated with a spore suspension of Alternaria solani and then remain at 100% rel. humidity and 22° C. for 24 h. The plants then remain at 96% rel. atmospheric humidity and a temperature of 20° C.
as §4

For the molecule `COCC(=O)Nc1cc(-c2c(-c3ccc(F)cc3)nn3c2CCOC3(C)C)ccn1` [Example 82], the efficacy in % came to 95% in the test on Sphaerotheca fuliginea; 88% with Leptosphaeria nodorum; 94% in the test on Pyrenophora teres; 70% with Phytophthora infestans; 89% with Alternaria solani.

As for `CC(C)Nc1cc(-c2c(-c3ccc(Cl)cc3)nn3c2CCC3)ccn1` [Example 48], in the test with Phytophthora infestans, the efficacy in % is listed as 70%.

As for `Nc1cc(-c2c(-c3ccc(F)cc3)nn3c2CCC3)ccn1` [Example 69], in the test on Phytophthora infestans, the efficacy in % is 70%.

For `CCC(=O)Nc1cc(-c2c(-c3ccc(F)cc3)nn3c2CCOC3)ccn1` [Example 95], the efficacy in % with Sphaerotheca fuliginea worked out at 95%; in the test with Leptosphaeria nodorum, 90%; with Pyrenophora teres it was 100%; in the test on Alternaria solani, 80%.

For `O=C(Nc1cc(-c2c(-c3ccc(F)cc3)nn3c2CCOC3)ccn1)C1CCC1` [Example 109], the efficacy in % with Sphaerotheca fuliginea was determined as 93%; with Pyrenophora teres, 95%; in the test with Alternaria solani it was 90%.

Consider `COCC(=O)Nc1cc(-c2c(-c3ccc(F)cc3)nn3c2CCOC3)ccn1` [Example 94], for which the efficacy in % in the test on Sphaerotheca fuliginea is listed as 93%; with Pyrenophora teres, 95%; in the test on Alternaria solani, 90%.

With `CCC(=O)Nc1cc(-c2c(-c3ccc(F)cc3)nn3c2CCCCC3)ccn1` [Example 96], the efficacy in % with Sphaerotheca fuliginea is given as 95%; in the test with Leptosphaeria nodorum it was 90%; with Pyrenophora teres, 100%; with Phytophthora infestans, 70%; in the test with Alternaria solani, 90%.

`O=C(CC1CC1)Nc1cc(-c2c(-c3ccc(F)cc3)nn3c2COCC3)ccn1` [Example 113]: the efficacy in % in the test on Sphaerotheca fuliginea was found to be 98%; in the test with Leptosphaeria nodorum it was 78%; in the test on Pyrenophora teres it was 94%; with Phytophthora infestans, 70%; in the test with Alternaria solani it was 90%.

In the test with Phytophthora infestans, `FC(F)(F)c1ccc(-c2nn3c(c2-c2ccncc2)CCC3)cc1` [Example 17] had an efficacy in % of 80%.

Take `CC1(C)OCCc2c(-c3ccnc(NC(=O)C4CC4)c3)c(-c3ccc(F)cc3)nn21` [Example 84]: the efficacy in % in the test on Sphaerotheca fuliginea was 98%; with Leptosphaeria nodorum it was 88%; with Pyrenophora teres, 94%.

For the molecule `CC(=O)Nc1cc(-c2c(-c3ccc(F)cc3)nn3c2CCOC3(C)C)ccn1` [Example 90], the efficacy in % turned out to be 95% in the test with Sphaerotheca fuliginea; 89% in the test on Leptosphaeria nodorum; 95% in the test with Pyrenophora teres; 78% in the test with Phytophthora infestans; 95% with Alternaria solani.

On to `CC(=O)Nc1cc(-c2c(-c3ccc(F)cc3)nn3c2CCOC3)ccn1` [Example 106], for which the efficacy in % in the test on Sphaerotheca fuliginea is 75%; in the test on Pyrenophora teres, 95%; in the test on Alternaria solani, 80%.

Consider `CC(C)CNc1cc(-c2c(-c3ccc(F)cc3)nn3c2CCC3)ccn1` [Example 71], for which the efficacy in % in the test on Pyrenophora teres and in the test on Phytophthora infestans was 80% throughout.

Turning to `O=C(Nc1cc(-c2c(-c3ccc(F)cc3)nn3c2COCC3)ccn1)C1CC1` [Example 93], the efficacy in % turned out to be 98% with Sphaerotheca fuliginea; 80% in the test on Leptosphaeria nodorum; 100% in the test on Pyrenophora teres; 90% with Phytophthora infestans; 95% in the test on Alternaria solani.

For `CCC(=O)Nc1cc(-c2c(-c3ccc(F)cc3)nn3c2COCC3)ccn1` [Example 104], the results for the efficacy in % in the test with Sphaerotheca fuliginea, with Pyrenophora teres and in the test with Alternaria solani were 93%, 95% and 80%, respectively.

For `CC(C)C(=O)Nc1cc(-c2c(-c3ccc(F)cc3)nn3c2COCC3)ccn1` [Example 92], the efficacy in % in the test with Sphaerotheca fuliginea is listed as 98%; in the test on Leptosphaeria nodorum it was 90%; with Pyrenophora teres it was 95%; with Phytophthora infestans, 80%; with Alternaria solani, 90%.

Turning to `CC(C)C(=O)Nc1cc(-c2c(-c3ccc(F)cc3)nn3c2CCCCC3)ccn1` [Example 97], the efficacy in % with Sphaerotheca fuliginea came to 100%; in the test on Leptosphaeria nodorum, 80%; in the test on Pyrenophora teres it was 100%; in the test with Alternaria solani, 70%.

In the case of `CCC(=O)Nc1cc(-c2c(-c3ccccc3)nn3c2COCC3)ccn1` [Example 100], the efficacy in % in the test with Sphaerotheca fuliginea was determined as 95%; with Leptosphaeria nodorum, 70%; with Pyrenophora teres it was 100%; with Alternaria solani, 80%.

Turning to `O=C(Cc1ccccc1)Nc1cc(-c2c(-c3ccc(F)cc3)nn3c2CCCCC3)ccn1` [Example 98], the efficacy in % is reported as 90% in the test with Sphaerotheca fuliginea, 95% with Pyrenophora teres and 90% in the test with Alternaria solani.

In the case of `O=C(Nc1cc(-c2c(-c3ccc(F)cc3)nn3c2CCOC3)ccn1)C1CC1` [Example 107], the efficacy in % in the test with Sphaerotheca fuliginea was 100%; in the test with Leptosphaeria nodorum, 90%; in the test with Pyrenophora teres, 95%.

For `CC(C)CC(=O)Nc1cc(-c2c(-c3ccc(F)cc3)nn3c2CCOC3)ccn1` [Example 112], the efficacy in % is on record as 95% with Sphaerotheca fuliginea, 90% in the test with Leptosphaeria nodorum, 95% with Pyrenophora teres and 90% in the test with Alternaria solani.

With `CC1CC1C(=O)Nc1cc(-c2c(-c3ccc(F)cc3)nn3c2CCOC3(C)C)ccn1` (centres unmarked) [Example 101], the efficacy in % is 98% in the test with Sphaerotheca fuliginea, 70% in the test on Leptosphaeria nodorum, 95% in the test on Pyrenophora teres and 90% in the test on Alternaria solani.

`CC1CC1C(=O)Nc1cc(-c2c(-c3ccc(F)cc3)nn3c2CCOC3)ccn1` (centres unmarked) [Example 108]: the efficacy in % in the test with Sphaerotheca fuliginea turned out to be 95%; with Leptosphaeria nodorum, 70%; in the test with Pyrenophora teres it was 95%; with Alternaria solani it was 80%.

In the case of `CC(C)C(=O)Nc1cc(-c2c(-c3ccc(F)cc3)nn3c2CCOC3(C)C)ccn1` [Example 83], the efficacy in % in the test on Sphaerotheca fuliginea came to 98%; with Leptosphaeria nodorum it was 75%; in the test with Pyrenophora teres, 94%; in the test with Phytophthora infestans, 70%; in the test with Alternaria solani, 89%.

For the molecule `CC(=O)Nc1cc(-c2c(-c3ccc(F)cc3)nn3c2CCCCC3)ccn1` [Example 99], the efficacy in % in the test on Sphaerotheca fuliginea was determined as 98%; with Leptosphaeria nodorum it was 95%; with Pyrenophora teres, 95%; with Alternaria solani it was 80%.

Turning to `CCC(=O)Nc1cc(-c2c(-c3cccs3)nn3c2CCCC3)ccn1` [Example 75], the efficacy in % with Sphaerotheca fuliginea was 95%; with Pyrenophora teres it was 100%; in the test with Phytophthora infestans, 80%; in the test on Alternaria solani, 95%.

With `CC(C)C(=O)Nc1cc(-c2c(-c3cccs3)nn3c2CCCC3)ccn1` [Example 88], the efficacy in % was 95% with Sphaerotheca fuliginea, 90% in the test with Pyrenophora teres, 80% with Phytophthora infestans and 90% with Alternaria solani.

Consider `CN(C)C=Nc1cc(-c2c(-c3ccc(F)cc3)nn3c2CCCC3)ccn1` [Example 39], for which the efficacy in % in the test with Pyrenophora teres came out at 95%; with Phytophthora infestans it was 80%; with Alternaria solani it was 80%.

Consider `CC1(C)OCCc2c(-c3ccnc(NC(=O)C4CCC4)c3)c(-c3ccc(F)cc3)nn21` [Example 102], for which the efficacy in % in the test on Sphaerotheca fuliginea came out at 100%; with Leptosphaeria nodorum, 90%; with Pyrenophora teres, 95%; in the test with Alternaria solani, 95%.
